Assay results: PubChem BioAssay AID602464 (Sanford-Burnham Center for Chemical Genomics, 2012)
Activity calls are given as the source filed them. Cut-off read from the data, not from the text of the source: active = IC50 below about 20 µM; inactive = the rest.

These compounds were tested on Gli-responsive luciferase reporter cells, SUFU pathway antagonism (assay: blockers of Gli reporter signaling – cell-based, luciferase luminescence, uHTS hits, dose response (AID 602464)).

First: CN(CCOc1ccc(Cl)cc1)C(=O)c1cccc(S(=O)(=O)N2CCN(c3ccc(F)cc3)CC2)c1
Second: CCOc1ccc(-n2c(-c3ccc(Cl)cc3)c[n+]3c2SCC3)cc1
The IC50 of the first is 1.6-fold higher: 5.59 µM for the first, 3.49 µM for the second.

Compared with `CCc1c(C)nc2ncnn2c1N1CCN(S(=O)(=O)c2ccc(OC)cc2)CC1`, `COC(=O)c1cc(S(=O)(=O)N2CCC(c3cc(OC)ccc3OC)C2)c[nH]1` (stereo not drawn) is 1.5-fold higher in IC50: 6.58 µM for the first, 9.96 µM for the second.

Going from `Cc1ccc(C)c(-c2csc(NC(=O)C3=COCCO3)n2)c1` to `Cc1nc2sccn2c1-c1csc(NCc2ccccc2)n1`, the IC50 rises from 6.31 µM to 9.83 µM (1.6-fold). The first is the more potent here.

Compared with `Cc1cc(C)c[n+](C(C)C(=O)c2ccc(-c3ccccc3)cc2)c1` (stereo not drawn), `COc1ccc2c(c1)c(C)cc[n+]2Cc1ccccc1` is 1.5-fold lower in IC50: 5.92 µM for the first, 3.86 µM for the second.

`COc1ccccc1CCNC(=O)C(=O)NCCC1CCCCN1S(=O)(=O)c1cccs1` (stereo not drawn) and `COc1ccc(CN(C)C(=O)c2cccc(NC(=O)CC3SC(N4CCCCC4)=NC3=O)c2)c(OC)c1` (stereo not drawn) are within 1.5-fold of each other in IC50: 8.81 µM for the first, 13 µM for the second.

First: Cc1cc(/C=N/n2cnnc2)c(C)n1-c1ccc(OCc2ccccc2F)cc1
Second: CC(=O)c1cn(Cc2ccccc2F)c2ccccc12
The IC50 of the first is 2.1-fold lower: 4.28 µM for the first, 8.82 µM for the second.

Compared with `CCOc1ccc(NC(=S)NNc2ccnc3cc(Cl)ccc23)cc1`, `CN(Cc1ccc(OCC(O)CN2CCCCC2)cc1)Cc1ccnc2ccccc12` (stereo not drawn) is 1.6-fold higher in IC50: 5.36 µM for the first, 8.47 µM for the second.

Compared with `Cc1nn(Cc2noc(C(=O)NC3CCC(C)CC3)n2)c(C)c1Br` (stereo not drawn), `O=C(NC1CCCC1)c1cc(COc2ccc3ncccc3c2)on1` is 1.7-fold lower in IC50: 8.59 µM for the first, 5.18 µM for the second. The second is the more potent here.

Going from `COc1ccc(CN(C)Cc2nc(Cc3cccc(F)c3)no2)c2cccnc12` to `CNc1nc(NCc2ccccc2)c2ccccc2n1`, the IC50 rises from 5.96 µM to 20 µM (3.4-fold).

`Cc1cc(N/N=C/c2ccc(O)cc2O)nc(-n2nc(C)cc2C)n1` and `CC1CCN(Cc2c(C(=O)N/N=C/c3ccccc3O)nnn2-c2nonc2N)CC1` are within 1.5-fold of each other in IC50: 7.17 µM for the first, 5.56 µM for the second.

Going from `O=C(C1CCCCC1)N1CCN(c2ccnc3cc(Cl)ccc23)CC1` to `CC(=O)N1c2ccc(S(=O)(=O)N3CCC(C(=O)N4CCCCC4)CC3)cc2CC1C` (stereo not drawn), the IC50 rises from 4.29 µM to 16.9 µM (3.9-fold). The first is the more potent here.

Compared with `Nc1ccc(Br)cc1-c1nc2ccccc2[nH]c1=O`, `CCCOc1ccccc1N/C(=N/c1nc(C)cc(C)n1)NC(=O)COc1ccc(OC)cc1` is 10-fold higher in IC50: 0.771 µM for the first, 7.7 µM for the second.

First: CC(C)(C)OC(=O)NCCCCCc1cn(CC(=O)NCCCCCCCCCCC(=O)N2CCN(C(=O)OC(C)(C)C)CC2)nn1
Second: CCOC(=O)N1CCN(C(=O)c2cc(COc3ccc4ncccc4c3)on2)CC1
The IC50 of the first is 2.3-fold lower: 2.93 µM for the first, 6.71 µM for the second.

`CCc1ccccc1NC(=S)N=Nc1c(O)n(C)c2ccc(S(=O)(=O)N3CCOCC3)cc12` and `Cc1ccc(NCC(=O)Nc2cccc(S(=O)(=O)N(C)C)c2)cc1S(=O)(=O)N1CCCCCC1` are within 1.5-fold of each other in IC50: 10.9 µM for the first, 14.5 µM for the second.

First: O=C(Nc1ccccc1)C1=C[C@@H](C2CCCCC2)C[C@@H](OCCCCO)O1
Second: O=C(Nc1ccccc1)C1=C[C@H](C2CCCCC2)C[C@H](OCCCCO)O1
The IC50 of the first is 2.9-fold higher: 1.96 µM for the first, 0.666 µM for the second.

Compared with `COc1ccc(C(C(=O)NC2CCCCC2)N(C(=O)CCl)c2ccc(Cl)cc2)cc1` (stereo not drawn), `FC(F)Oc1ccc(-n2cc(-c3ccccc3)[n+]3c2CCCCC3)cc1` is 1.8-fold higher in IC50: 4.5 µM for the first, 8.14 µM for the second.

Going from `CC(C)CCOC(=O)C[N+](C)(C)CCOC1CC2CCC1(C)C2(C)C` (stereo not drawn) to `CCC(C)NC(=O)CCC(=O)OC1O[C@H]2OC3(C)CC[C@H]4[C@H](C)CCC(C1C)C24OO3` (stereo partly drawn), the IC50 falls from 5.18 µM to 0.421 µM (12-fold).

`O=C(Nc1cc2c3c(c1)C1CCCC1CN3CC1CCCC21)c1ccc([N+](=O)[O-])cc1` (stereo not drawn) and `CCOC(=O)CC1CCCCN1C(=O)c1cc(COc2cccc3cnccc23)on1` (stereo not drawn) are within 1.5-fold of each other in IC50: 5.09 µM for the first, 4.47 µM for the second.

First: CC(C)CC(NC(=O)CCCNC(=O)CCC(=O)OC1O[C@H]2OC3(C)CC[C@H]4[C@H](C)CCC(C1C)C24OO3)C(=O)O (stereo partly drawn)
Second: CC(=O)c1c(C)[nH]c(C(=O)OCC(=O)Nc2sc3c(c2C#N)CCCC3)c1C
The IC50 of the first is 9-fold lower: 0.619 µM for the first, 5.59 µM for the second. The first is the more potent here.

`CCOC(=O)c1sc2nc(CC(=O)OC)nc(NCc3ccc(Cl)cc3)c2c1C` and `Cc1nn(C)c(C(=O)NCc2ccc(Cl)cc2)c1Cl` are within 1.5-fold of each other in IC50: 9.23 µM for the first, 8.1 µM for the second.

First: Cc1cccnc1CN1CCN(C(=O)c2cc(COc3ccc4ncccc4c3)on2)CC1
Second: O=C(c1cc(COc2cccc3cnccc23)on1)N1CCCC(CCCO)C1 (stereo not drawn)
The IC50 of the first is 3.4-fold higher: 5.18 µM for the first, 1.53 µM for the second. The second is the more potent here.

`CCC(CC)CN1C(N(C)C)=NC[C@@H]1CC(C)C` and `CCN(CC)S(=O)(=O)c1ccc(S(=O)(=O)Nc2c(C)nn(C)c2C)cc1` are within 1.5-fold of each other in IC50: 8.27 µM for the first, 6.15 µM for the second.

First: COc1ccc(OC)c(Cc2cnc3nc(N)nc(N)c3c2C)c1
Second: COCCOc1nc2c(c(=O)n(C)c(=O)n2C)n1Cc1cccc(OC)c1
The IC50 of the first is 3.4-fold lower: 2.8 µM for the first, 9.46 µM for the second. The first is the more potent here.

`COc1cc2c(c(OC)c1OC)-c1ccc(N(C)CC(OC)OC)c(=O)cc1[C@@H](NC(C)=O)CC2` showed an IC50 of 7.37 µM.

`C/C(=N\Nc1ccc(Cl)nn1)c1ccccc1O` was tested, and the IC50 was > 20 µM (inactive).
With `CCC(C)NS(=O)(=O)c1ccc(S(=O)(=O)N2CCCC3(CCCCC3)C2)cc1` (stereo not drawn) the IC50 was > 20 µM (inactive).
In the case of `Cn1c(=O)c2c(nc(NCCOc3ccc(C(C)(C)C)cc3)n2C)n(C)c1=O`, the IC50 is reported as > 20 µM (inactive).
`CCCN(CCC)CCNC(=O)c1cc2c(=O)n(C)c3ccccc3c2n1C` was tested, and the IC50 was > 20 µM (inactive).
`O=C(Cc1csc(Nc2nc(=S)[nH]c3ccccc23)n1)NCCCN1CCN(c2ccccc2F)CC1` was tested, and the IC50 was > 20 µM (inactive).
`Cc1cccc(C)c1NC(=S)N(CCN1CCCCCC1)Cc1ccco1` was tested, and the IC50 was > 20 µM (inactive).
